We go through 1 substance from US8158750B2, “Preparation and standardization of immunomodulatory peptide-linked glucans with verifiable oral absorbability from coriolus versicolor” (The Chinese University of Hong Kong, priority 2002, dated 2012).

In this assay the test system is murine peritoneal macrophages. As to the kind of experiment: Secretion of nitric oxide by murine peritoneal macrophages in vitro (Griess reaction). It is filed as cell-based, ICR mice. To be noted: 24 hours. The protocol:
Ten ICR mice were injected intraperitoneally with 1 ml 3% w/v aqueous thioglycolate. After 3 days, the mice were sacrificed by cervical dislocation. Macrophages were harvested by opening the peritoneum and lavaging the space with PBS. The PBS lavage from each sacrificed mouse was pooled. […] The cells were allowed to adhere on the bottom of the wells of microtiter plates for 1 hr at 37° C. in a humidified atmosphere of […] and 5% CO2. Next, the supernatant in the wells was carefully removed. […] The contacted cells were incubated at 37° C. in a humidified atmosphere of […] and 5% CO2 for 24 hours. At 24 hours, the amount of nitrate present in the cell-free culture medium was determined by the Griess reaction. (See Green L. C. et al, Analysis of nitrate, nitrite, and [15N] nitrate in biological fluids, Anal. Biochem., 1982, 126:131-138.) A 150 μl aliquot of cell-free culture medium was pipetted from each microtiter plate well, and reacted with 50 μl of Griess reagent for 10 minutes in a fresh microtiter plate well. Absorbance of the aliquot was then measured at 540 nm using a microplate reader (BTI, ELX 800).

lipopolysaccharide [LPS]: the “Increased secretion of nitric oxide, dose dependence” value is recorded as “dose-dependent at low LPS concentrations”.
